Legend:
[1] = Stability in Simulated Gastric Fluid (SGF); type: in vitro ADME; details: SGF pH 1.6 with pepsin, 1 μM, 37° C.
Procedure: Stability of acylated active agents in Simulated Gastric Fluid (SGF). This assay was used to assess the stability of an acylated active agent in a stomach.
Medium was prepared by dissolving 2 g of sodium chloride in 0.6 L in ultrapure water (MilliQ®, Millipore Sigma, Darmstadt, Germany). The pH was adjusted to 1.6 with 1N hydrochloric acid, and the volume was then adjusted to 1 L with purified water.
60 mg FaSSIF powder (Biorelevant™, London, UK) were dissolved in 500 mL buffer (above). Pepsin was added (0.1 mg/mL) (Millipore Sigma, Darmstadt, Germany), and the solution was stirred. The resulting SGF media were used fresh for each experiment.
(§1) Test compounds were dissolved in DMSO stock to 1 mM. An aliquot of the DMSO stock solution was removed and diluted in the SGF Media in 15 mL falcon tubes to generate a total compound concentration of 1 μM. A 1 mL aliquot was immediately removed and diluted once with 1 volume of acetonitrile for T0 timepoint. The mixture was sealed and mixed at 37° C. in an incubator. Aliquots (1 mL) were removed at regular intervals and immediately quenched by the addition of 1 volume of acetonitrile. The resulting samples were analyzed by LC/MS to determine degradation rates

[2] = Stability in Simulated Intestinal Fluid (SIF); type: in vitro ADME
Procedure: SIF Stability of acylated active agents in Simulated Intestinal Fluid (SIF). This assay was used to assess the stability of an acylated active agent in a small intestine.
Phosphate buffer was prepared by dissolving 0.42 g of sodium hydroxide pellets and 3.95 g of monobasic sodium phosphate monohydrate and 6.19 g of sodium chloride in ultrapure water (MilliQ®, Millipore Sigma, Darmstadt, Germany). The pH was adjusted to 6.7 using aq. HCl and aq. NaOH, as necessary, and the solution was diluted with ultrapure water to produce 1 L of the pH 6.7 buffer.
112 mg FaSSIF powder (Biorelevant™, London, UK) was dissolved in 50 mL of the pH 6.7 buffer. 2 to 3 mL of the resulting solution were then added to 500 mg pancreatin (Millipore Sigma, Darmstadt, Germany). The resulting mixture was agitated by finger tapping the vessel containing the mixture until milky suspension formed. At this time, the remainder of the 50 mL FaSSiF/pH 6.7 buffer solution was added. The resulting suspension was flipped upside down 10 times to produce SIF, which was used fresh.
as §1, with “SIF media” for “SGF Media”, “produce” for “generate”, “mixture with a tested” for “total”, “agitated” for “mixed”, “rates.” for “rates”

[3] = tested on: HCT 116 colorectal cancer cells; experiment: Cancer cell survival (CellTiter-Glo), HCT 116; type: cell-based; details: HCT 116 cells, 72 h
In short: (§2)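 Following overnight plating of 4×10^3 cells per well, triplicate wells received compound at nine concentrations (10× dosing stocks: fatty acids 1 μM-10 mM, all others 100 nM-1 mM). Incubation lasted 72 h at 37 C under 5% CO2. CellTiter-Glo luminescence then gave percent survival and IC50.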

[4] = tested on: PC-3 prostate cancer cells; experiment: Cancer cell survival (CellTiter-Glo), PC-3; type: cell-based; details: PC-3 cells, 72 h
In short: as §2

[5] = tested on: A549 lung cancer cells; experiment: Cancer cell survival (CellTiter-Glo), A549; type: cell-based; details: 72 h
In short: as §2

[6] = tested on: MCF7 breast cancer cells; experiment: Cancer cell survival (CellTiter-Glo), MCF7; type: cell-based; details: 72 h
In short: as §2

[7] = tested on: Daudi lymphoma cancer cells; experiment: Cancer cell survival (CellTiter-Glo), Daudi; type: cell-based; details: 72 h
In short: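 Daudi cells (4×10^3/well) were exposed for 72 h at 37 °C to nine concentrations of compound, added as 10× solutions spanning 1 μM–10 mM (fatty acids) or 100 nM–1 mM (others). CellTiter-Glo luminescence gave % survival versus untreated, medium-blank corrected; IC50 derived.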

[8] = tested on: T24 bladder cancer cells; experiment: Cancer cell survival (CellTiter-Glo), T24; type: cell-based; details: 72 h
In short: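 Viability by CellTiter-Glo after 72 h compound treatment of T24 bladder cancer cells (4×10^3/well, plated the night before), nine concentration levels in triplicate. Percent survival normalised to untreated cells minus medium background, from which IC50 was determined.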

[9] = tested on: A-431 skin cancer cells; experiment: Cancer cell survival (CellTiter-Glo), A-431; type: cell-based; design: Cell survival at given concentration: unit not given here; details: A-431 cells, 72 h
In short: as §2

[10] = tested on: AGS stomach cancer cells; experiment: Cancer cell survival (CellTiter-Glo), AGS; type: cell-based; design: Cell survival at given concentration: unit not given here
In short: as §2

CC(=O)Oc1cc(OC(C)=O)c2c(=O)c(OC(C)=O)c(-c3ccc(OC(C)=O)c(OC(C)=O)c3)oc2c1 [Compound 4, [2-acetoxy-4-(3,5,7-triacetoxy-4-oxo-chromen-2-yl)phenyl] acetate]
Assay 1 (SGF) (% Remaining @ 1 hours) [1]: C (>75% of the tested compound remaining)
Assay 2 (SIF) (% @ Remaining 4 hours) ([2]; SIF pH 6.7 with pancreatin, 1 μM, 37° C., 4 hours): A (<25% of the tested compound remaining)
selective delivery to the upper intestine ([2]; conclusion drawn from Table 1 (SGF and SIF stability)): can be selectively delivered to the upper intestine

CC(=O)Oc1ccc(-c2oc3cc(OC(C)=O)cc(OC(C)=O)c3c(=O)c2OC(C)=O)cc1 [Compound 8, [4-(3,5,7-triacetoxy-4-oxo-chromen-2-yl)phenyl] acetate]
Assay 1 (SGF) (% Remaining @ 1 hours) [1]: C (>75% of the tested compound remaining)

CC(=O)Oc1cc(OC(C)=O)c2c(=O)c(OC(C)=O)c(-c3cc(OC(C)=O)c(OC(C)=O)c(OC(C)=O)c3)oc2c1 [Compound 11, [3,5-diacetoxy-4-oxo-2-(3,4,5-triacetoxyphenyl)chromen-7-yl] acetate]
Assay 1 (SGF) (% Remaining @ 1 hours) [1]: C (>75% of the tested compound remaining)

CCC(=O)Oc1cc(OC(=O)CC)c2c(c1)O[C@H](c1cc(OC(=O)CC)c(OC(=O)CC)c(OC(=O)CC)c1)[C@H](OC(=O)c1cc(OC(=O)CC)c(OC(=O)CC)c(OC(=O)CC)c1)C2 [Compound 15, [(2R,3R)-5,7-di(propanoyloxy)-2-[3,4,5-tri(propanoyloxy)phenyl]chroman-3-yl] 3,4,5-tri(propanoyloxy)benzoate]
Assay 1 (SGF) (% Remaining @ 1 hours) [1]: C (>75% of the tested compound remaining)

CCCC(=O)O[C@H](C)CCOC(=O)C[C@@H](C)OC(=O)CCC [Compound 23, (R)-3-(butyryloxy)butyl (R)-3-(butyryloxy)butanoate]
Assay 1 (SGF) (% Remaining @ 1 hours) [1]: C (>75% of the tested compound remaining)

CCCCC(=O)O [valerate]
Cell survival at given concentration ([3]; 1 μM, Table 6.2): 0.99
Cell survival at given concentration ([3]; 3 μM, Table 6.2): 0.99
Cell survival at given concentration ([3]; 10 μM, Table 6.2): 1.04
Cell survival at given concentration ([3]; 32 μM, Table 6.2): 1.00
Cell survival at given concentration ([3]; 100 μM, Table 6.2): 1.01
Cell survival at given concentration ([3]; 317 μM): 0.99
Cell survival at given concentration ([3]; 1 mM): 0.90
Cell survival at given concentration ([3]; 3 mM): 0.60
Cell survival at given concentration ([3]; 10 mM): 0.17
IC50 ([3]; Table 6.2): 4.07 mM
Cell survival at given concentration ([4]; 1 μM, Table 8.2): 1.00
Cell survival at given concentration ([4]; 3 μM, Table 8.2): 0.99
Cell survival at given concentration ([4]; 10 μM, Table 8.2): 1.02
Cell survival at given concentration ([4]; 32 μM, Table 8.2): 1.01
Cell survival at given concentration ([4]; 100 μM, Table 8.2): 1.04
Cell survival at given concentration ([4]; 317 μM): 0.97
Cell survival at given concentration ([4]; 1 mM): 0.94
Cell survival at given concentration ([4]; 3 mM): 0.84
Cell survival at given concentration ([4]; 10 mM): 0.69
IC50 ([4]; Table 8.2): > 10 mM
Cell survival at given concentration ([5]; 1 μM, Table 7.2): 0.98
Cell survival at given concentration ([5]; 3 μM, Table 7.2): 1.00
Cell survival at given concentration ([5]; 10 μM, Table 7.2): 1.01
Cell survival at given concentration ([5]; 32 μM, Table 7.2): 0.97
Cell survival at given concentration ([5]; 100 μM, Table 7.2): 1.04
Cell survival at given concentration ([5]; 317 μM): 1.02
Cell survival at given concentration ([5]; 1 mM): 0.98
Cell survival at given concentration ([5]; 3 mM): 0.87
Cell survival at given concentration ([5]; 10 mM): 0.62
IC50 ([5]; Table 7.2): > 10 mM
Cell survival at given concentration ([6]; 1 μM, Table 5.2): 1.00
Cell survival at given concentration ([6]; 3 μM, Table 5.2): 1.02
Cell survival at given concentration ([6]; 10 μM, Table 5.2): 1.01
Cell survival at given concentration ([6]; 32 μM, Table 5.2): 0.97
Cell survival at given concentration ([6]; 100 μM, Table 5.2): 1.00
Cell survival at given concentration ([6]; 317 μM): 0.96
Cell survival at given concentration ([6]; 1 mM): 0.94
Cell survival at given concentration ([6]; 3 mM): 0.76
Cell survival at given concentration ([6]; 10 mM): 0.50
IC50 ([6]; Table 5.2): > 10 mM
Cell survival at given concentration ([7]; 1 μM, Table 4.2): 0.99
Cell survival at given concentration ([7]; 3 μM, Table 4.2): 0.98
Cell survival at given concentration ([7]; 10 μM, Table 4.2): 0.98
Cell survival at given concentration ([7]; 32 μM, Table 4.2): 1.01
Cell survival at given concentration ([7]; 100 μM, Table 4.2): 0.95
Cell survival at given concentration ([7]; 317 μM): 0.91
Cell survival at given concentration ([7]; 1 mM): 0.76
Cell survival at given concentration ([7]; 3 mM): 0.39
Cell survival at given concentration ([7]; 10 mM): 0.12
IC50 ([7]; Table 4.2): 2.3 mM
Cell survival at given concentration ([8]; 1 μM, Table 3.2): 1.00
Cell survival at given concentration ([8]; 3 μM, Table 3.2): 1.01
Cell survival at given concentration ([8]; 10 μM, Table 3.2): 1.01
Cell survival at given concentration ([8]; 32 μM, Table 3.2): 0.98
Cell survival at given concentration ([8]; 100 μM, Table 3.2): 0.98
Cell survival at given concentration ([8]; 317 μM): 0.92
Cell survival at given concentration ([8]; 1 mM): 0.89
Cell survival at given concentration ([8]; 3 mM): 0.79
Cell survival at given concentration ([8]; 10 mM): 0.60
IC50 ([8]; Table 3.2, read-out: IC50): > 10 mM
Cell survival at given concentration ([9]; 1 μM, Table 9.2): 1.01
Cell survival at given concentration ([9]; 3 μM, Table 9.2): 1.01
Cell survival at given concentration ([9]; 10 μM, Table 9.2): 1.02
Cell survival at given concentration ([9]; 32 μM, Table 9.2): 1.02
Cell survival at given concentration ([9]; 100 μM, Table 9.2): 1.02
Cell survival at given concentration ([9]; 317 μM): 1.03
Cell survival at given concentration ([9]; 1 mM): 0.98
Cell survival at given concentration ([9]; 3 mM): 0.89
Cell survival at given concentration ([9]; 10 mM): 0.71
Cell survival at given concentration ([10]; 1 μM, Table 10.2): 1.03
Cell survival at given concentration ([10]; 3 μM, Table 10.2): 1.03
Cell survival at given concentration ([10]; 10 μM, Table 10.2): 1.04
Cell survival at given concentration ([10]; 32 μM, Table 10.2): 1.03
Cell survival at given concentration ([10]; 100 μM, Table 10.2): 1.05
Cell survival at given concentration ([10]; 317 μM): 1.06
Cell survival at given concentration ([10]; 1 mM): 1.06
Cell survival at given concentration ([10]; 3 mM): 0.97
Cell survival at given concentration ([10]; 10 mM): 0.63
